Consider seven molecules from PMC7326642 (Current computer-aided drug design, 2021).

The target of experiment [1] is Cyclin A2-CDK2 kinase enzyme (Homo sapiens, UniProt P20248+P24941). The experiment is described as follows: ADP-Glo Kinase Assay, screening at 0, 1 and 10 μM. In kind it is biochemical. To be noted: for kinase activity reduced to: remaining CDK2 kinase activity.
Another experiment has as its target cyclin A2-CDK2 complex (Homo sapiens, UniProt P20248+P24941). The experiment in a line: dose response in the in vitro biochemical kinase assay. The settings on record: 0 nM to 100 μM, room temperature.

For the molecule `Cc1ccc(Nc2nc(N)nc(N)c2N=O)cc1` [NSC49876], the “effect on kinase activity (in words)” value in experiment [1] (10 μM compound) is on record as “weakly activated CDK2 activity”.

`CCc1c(N)nc(N)nc1Nc1ccc(Cl)c(Cl)c1` [NSC50590]: in experiment [1] (10 μM compound), the “effect on kinase activity (in words)” value was “weakly activated CDK2 activity”.

Take `NC(=O)c1c(Nc2ccc(Br)cc2)[nH]c(=O)[nH]c1=O` [NSC73381]: the “effect on kinase activity (in words)” value in experiment [1] (10 μM compound) is recorded as “weakly activated CDK2 activity”.

Turning to `N#Cc1c(N)nc(N)nc1Nc1ccc(Br)cc1` [compound 1], in experiment [1] (1 μM compound), the “effect on kinase activity (in words)” value was “no significant effect”. The “kinase activity reduced to” value in experiment [1] (10 μM compound) came to 58%. This molecule yielded an IC50 against cyclin A2-CDK2 complex of 6.5 µM.

Take `N#Cc1c(Nc2ccc(Br)cc2)[nH]c(=O)[nH]c1=O` [NSC73380]: in experiment [1] (10 μM compound), the “effect on kinase activity (in words)” value is listed as “weakly activated CDK2 activity”.

As for `NC(=S)c1cn(C2OC(CO)C(O)C2O)c2ncnc(N)c12` (centres unmarked) [compound 2], the “kinase activity reduced to” value in experiment [1] (1 μM compound) amounted to 43%. Besides, the “effect on kinase activity (in words)” value in experiment [1] (10 μM compound) is on record as “did not further reduce the kinase activity”. This molecule gave an IC50 at cyclin A2-CDK2 complex of 0.0076 µM.

`Cc1cc(Br)ccc1Nc1nc(N)nc(N)c1N=O` [NSC66578]: the “effect on kinase activity (in words)” value in experiment [1] (10 μM compound) is recorded as “weakly activated CDK2 activity”.

A word on the IC50: it is the concentration that inhibits the measured activity by half. Read a low IC50 as inhibition by little substance.
